pKi: −log10 of the molar value.
test system: not listed separately; experiment: Anticoagulant activity in human plasma by aPTT assay; format: functional; details: not given

Row | SMILES | IC200
1 | CCOC(=O)CN[C@H](CCc1ccccn1)C(=O)N1CCC[C@H]1C(=O)NCc1cc(Cl)ccc1CN | 0.23 µM
2 | NCc1ccc(Cl)cc1CNC(=O)[C@@H]1CCCN1C(=O)[C@@H](CCc1ccccn1)NCC(=O)O | 0.16 µM
3 | NCc1ccc(Cl)cc1CNC(=O)[C@@H]1CCCN1C(=O)[C@@H](CCc1ccc(O)cc1)NCC(=O)O | 0.47 µM
4 | NCc1ccc(Cl)cc1CNC(=O)CNC(=O)C(CCc1cccc[n+]1[O-])NCC(=O)O (configuration not stated) | 6 µM
5 | COC(=O)C(=O)N[C@H](CCc1cccc[n+]1[O-])C(=O)N1CCC[C@H]1C(=O)NCc1cc(Cl)ccc1CN | 0.3 µM

biological target: Coagulation factor X (Homo sapiens, UniProt P00742); details: not given
Sequence (P00742 41-179 limits assumed): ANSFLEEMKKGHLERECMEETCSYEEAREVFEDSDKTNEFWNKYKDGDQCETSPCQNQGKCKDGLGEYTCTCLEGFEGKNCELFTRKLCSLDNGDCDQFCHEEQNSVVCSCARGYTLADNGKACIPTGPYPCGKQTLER
Sequence (P00742 235-488 limits assumed): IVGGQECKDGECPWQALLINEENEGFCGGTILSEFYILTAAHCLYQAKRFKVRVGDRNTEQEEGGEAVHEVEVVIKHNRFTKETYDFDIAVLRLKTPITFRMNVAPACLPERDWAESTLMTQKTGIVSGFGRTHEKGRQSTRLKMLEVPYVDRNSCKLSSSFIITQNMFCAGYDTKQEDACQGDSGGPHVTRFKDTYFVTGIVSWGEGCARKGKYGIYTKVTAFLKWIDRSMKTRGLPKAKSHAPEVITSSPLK

Row | SMILES | pKi
6 | C[C@H](NC(=O)[C@@H](CCc1ccccn1)NS(=O)(=O)Cc1ccccc1)C(=O)NCc1cc(Cl)ccc1CN | 10.08
7 | COC(=O)C(=O)N[C@H](CCc1cccc[n+]1[O-])C(=O)N1CCC[C@H]1C(=O)NCc1cc(Cl)ccc1CN | 9.20

More lines, now with the values ahead:

Row | pKi | SMILES
8 | 9.06 | COC(=O)C(=O)NC(CCc1cccc[n+]1[O-])C(=O)N1CCC[C@H]1C(=O)NCc1cc(Cl)ccc1CN (some centres not stated)
9 | 6.70 | CCOC(=O)CC(=O)NC(CCc1cccc[n+]1[O-])C(=O)NCC(=O)NCc1cc(Cl)ccc1CN (configuration not stated)
10 | 7.68 | Nc1ccc(CNC(=O)CNC(=O)C(CCc2cccc[n+]2[O-])NS(=O)(=O)Cc2ccccc2)cn1 (configuration not stated)

biological target: Trypsin (Homo sapiens, UniProt P07477+P07478+P35030); experiment: Inhibition of trypsin; format: protein assay; details: not given

Row | SMILES | Ki
11 | C[C@H](NC(=O)[C@@H](CCc1ccccn1)NS(=O)(=O)Cc1ccccc1)C(=O)NCc1cc(Cl)ccc1CN | > 500 nM
12 | NCc1ccc(Cl)cc1CNC(=O)[C@@H]1CCCN1C(=O)[C@@H](CCc1ccccn1)NCC(=O)O | > 500 nM
13 | NCc1ccc(Cl)cc1CNC(=O)[C@@H]1CCCN1C(=O)[C@@H](CCc1ccc(O)cc1)NCC(=O)O | > 500 nM
14 | COC(=O)C(=O)N[C@H](CCc1cccc[n+]1[O-])C(=O)N1CCC[C@H]1C(=O)NCc1cc(Cl)ccc1CN | > 500 nM

The next lines start with the values.

Row | Ki | SMILES
15 | > 500 nM | COC(=O)C(=O)NC(CCc1cccc[n+]1[O-])C(=O)N1CCC[C@H]1C(=O)NCc1cc(Cl)ccc1CN (some centres not stated)
16 | > 500 nM | CCOC(=O)CC(=O)NC(CCc1cccc[n+]1[O-])C(=O)NCC(=O)NCc1cc(Cl)ccc1CN (configuration not stated)
17 | > 500 nM | Nc1ccc(CNC(=O)CNC(=O)C(CCc2cccc[n+]2[O-])NS(=O)(=O)Cc2ccccc2)cn1 (configuration not stated)
18 | > 500 nM | CCOC(=O)CN[C@H](CCc1ccccn1)C(=O)N1CCC[C@H]1C(=O)NCc1cc(Cl)ccc1CN
19 | > 500 nM | NCc1ccc(Cl)cc1CNC(=O)CNC(=O)C(CCc1cccc[n+]1[O-])NCC(=O)O (configuration not stated)

test system: Plasma; experiment: Anticoagulant activity in human plasma by PT assay; format: functional; details: not given

Row | SMILES | IC200
20 | CCOC(=O)CN[C@H](CCc1ccccn1)C(=O)N1CCC[C@H]1C(=O)NCc1cc(Cl)ccc1CN | 0.6 µM
21 | NCc1ccc(Cl)cc1CNC(=O)[C@@H]1CCCN1C(=O)[C@@H](CCc1ccccn1)NCC(=O)O | 0.35 µM
22 | NCc1ccc(Cl)cc1CNC(=O)[C@@H]1CCCN1C(=O)[C@@H](CCc1ccc(O)cc1)NCC(=O)O | 0.73 µM
23 | NCc1ccc(Cl)cc1CNC(=O)CNC(=O)C(CCc1cccc[n+]1[O-])NCC(=O)O (configuration not stated) | 3.3 µM
24 | COC(=O)C(=O)N[C@H](CCc1cccc[n+]1[O-])C(=O)N1CCC[C@H]1C(=O)NCc1cc(Cl)ccc1CN | 0.79 µM

test system: Plasma; experiment: Anticoagulant activity in human plasma by TT assay; format: functional; details: not given

Row | SMILES | IC200
25 | CCOC(=O)CN[C@H](CCc1ccccn1)C(=O)N1CCC[C@H]1C(=O)NCc1cc(Cl)ccc1CN | 0.09 µM
26 | NCc1ccc(Cl)cc1CNC(=O)[C@@H]1CCCN1C(=O)[C@@H](CCc1ccccn1)NCC(=O)O | 0.03 µM
27 | NCc1ccc(Cl)cc1CNC(=O)[C@@H]1CCCN1C(=O)[C@@H](CCc1ccc(O)cc1)NCC(=O)O | 0.15 µM
28 | NCc1ccc(Cl)cc1CNC(=O)CNC(=O)C(CCc1cccc[n+]1[O-])NCC(=O)O (configuration not stated) | >100 µM
29 | COC(=O)C(=O)N[C@H](CCc1cccc[n+]1[O-])C(=O)N1CCC[C@H]1C(=O)NCc1cc(Cl)ccc1CN | 0.13 µM

test system: not listed separately; experiment: Permeability across Caco-2 cell membrane; format: ADME, cell-based; details: human

Row | SMILES | Papp
30 | CCOC(=O)CN[C@H](CCc1ccccn1)C(=O)N1CCC[C@H]1C(=O)NCc1cc(Cl)ccc1CN | 2.4 ×10⁻⁶ cm/s
31 | NCc1ccc(Cl)cc1CNC(=O)[C@@H]1CCCN1C(=O)[C@@H](CCc1ccccn1)NCC(=O)O | 5 ×10⁻⁶ cm/s

biological target: Urokinase-type plasminogen activator (Homo sapiens, UniProt P00749); experiment: Inhibition of uPA; details: not given

Row | SMILES | pKi
32 | C[C@H](NC(=O)[C@@H](CCc1ccccn1)NS(=O)(=O)Cc1ccccc1)C(=O)NCc1cc(Cl)ccc1CN | < 5.30
33 | NCc1ccc(Cl)cc1CNC(=O)[C@@H]1CCCN1C(=O)[C@@H](CCc1ccccn1)NCC(=O)O | < 5.30
34 | NCc1ccc(Cl)cc1CNC(=O)[C@@H]1CCCN1C(=O)[C@@H](CCc1ccc(O)cc1)NCC(=O)O | < 5.30
35 | COC(=O)C(=O)N[C@H](CCc1cccc[n+]1[O-])C(=O)N1CCC[C@H]1C(=O)NCc1cc(Cl)ccc1CN | < 5.30

Further lines, results first:

Row | pKi | SMILES
36 | < 5.30 | COC(=O)C(=O)NC(CCc1cccc[n+]1[O-])C(=O)N1CCC[C@H]1C(=O)NCc1cc(Cl)ccc1CN (some centres not stated)
37 | < 5.30 | CCOC(=O)CC(=O)NC(CCc1cccc[n+]1[O-])C(=O)NCC(=O)NCc1cc(Cl)ccc1CN (configuration not stated)
38 | < 5.30 | Nc1ccc(CNC(=O)CNC(=O)C(CCc2cccc[n+]2[O-])NS(=O)(=O)Cc2ccccc2)cn1 (configuration not stated)
39 | < 5.30 | CCOC(=O)CN[C@H](CCc1ccccn1)C(=O)N1CCC[C@H]1C(=O)NCc1cc(Cl)ccc1CN
40 | < 5.30 | NCc1ccc(Cl)cc1CNC(=O)CNC(=O)C(CCc1cccc[n+]1[O-])NCC(=O)O (configuration not stated)

biological target: not listed separately; experiment: Inhibition of Plasmin; set-up: species or system Homo sapiens; details: not given

Row | SMILES | pKi
41 | C[C@H](NC(=O)[C@@H](CCc1ccccn1)NS(=O)(=O)Cc1ccccc1)C(=O)NCc1cc(Cl)ccc1CN | < 5.30
42 | NCc1ccc(Cl)cc1CNC(=O)[C@@H]1CCCN1C(=O)[C@@H](CCc1ccccn1)NCC(=O)O | < 5.30
43 | NCc1ccc(Cl)cc1CNC(=O)[C@@H]1CCCN1C(=O)[C@@H](CCc1ccc(O)cc1)NCC(=O)O | < 5.30
44 | COC(=O)C(=O)N[C@H](CCc1cccc[n+]1[O-])C(=O)N1CCC[C@H]1C(=O)NCc1cc(Cl)ccc1CN | < 5.30

Further lines, results first:

Row | pKi | SMILES
45 | < 5.30 | COC(=O)C(=O)NC(CCc1cccc[n+]1[O-])C(=O)N1CCC[C@H]1C(=O)NCc1cc(Cl)ccc1CN (some centres not stated)
46 | < 5.30 | CCOC(=O)CC(=O)NC(CCc1cccc[n+]1[O-])C(=O)NCC(=O)NCc1cc(Cl)ccc1CN (configuration not stated)
47 | < 5.30 | Nc1ccc(CNC(=O)CNC(=O)C(CCc2cccc[n+]2[O-])NS(=O)(=O)Cc2ccccc2)cn1 (configuration not stated)
48 | < 5.30 | CCOC(=O)CN[C@H](CCc1ccccn1)C(=O)N1CCC[C@H]1C(=O)NCc1cc(Cl)ccc1CN
49 | < 5.30 | NCc1ccc(Cl)cc1CNC(=O)CNC(=O)C(CCc1cccc[n+]1[O-])NCC(=O)O (configuration not stated)

biological target: Prothrombin (Homo sapiens, UniProt P00734); experiment: Inhibition of thrombin; details: not given

Row | SMILES | pKi
50 | C[C@H](NC(=O)[C@@H](CCc1ccccn1)NS(=O)(=O)Cc1ccccc1)C(=O)NCc1cc(Cl)ccc1CN | 7.62
51 | NCc1ccc(Cl)cc1CNC(=O)[C@@H]1CCCN1C(=O)[C@@H](CCc1ccc(O)cc1)NCC(=O)O | 8.49
52 | COC(=O)C(=O)N[C@H](CCc1cccc[n+]1[O-])C(=O)N1CCC[C@H]1C(=O)NCc1cc(Cl)ccc1CN | 7.75

The next lines start with the values.

Row | pKi | SMILES
53 | 7.72 | COC(=O)C(=O)NC(CCc1cccc[n+]1[O-])C(=O)N1CCC[C@H]1C(=O)NCc1cc(Cl)ccc1CN (some centres not stated)
54 | 4.40 | CCOC(=O)CC(=O)NC(CCc1cccc[n+]1[O-])C(=O)NCC(=O)NCc1cc(Cl)ccc1CN (configuration not stated)
55 | 4.06 | Nc1ccc(CNC(=O)CNC(=O)C(CCc2cccc[n+]2[O-])NS(=O)(=O)Cc2ccccc2)cn1 (configuration not stated)
56 | 8.42 | CCOC(=O)CN[C@H](CCc1ccccn1)C(=O)N1CCC[C@H]1C(=O)NCc1cc(Cl)ccc1CN
57 | 3.90 | NCc1ccc(Cl)cc1CNC(=O)CNC(=O)C(CCc1cccc[n+]1[O-])NCC(=O)O (configuration not stated)

Source: ChEMBL document CHEMBL1145355, “From selective substrate analogue factor Xa inhibitors to dual inhibitors of thrombin and factor Xa. Part 3” (Bioorg Med Chem Lett, 2007)
